Consider 24 compounds from ChEMBL document CHEMBL1759888, “Biological evaluation of polyhalo 1,3-diazaheterocycle fused isoquinolin-1(2H)-imine derivatives” (Eur J Med Chem, 2011).

≈ marks a conversion by molar mass, not a printed value.

In one data set the test system is HL-60. The experiment in a line: Anticancer activity against human HL60 cells after 48 hrs by MTT assay. The note with it: HL-60, 48 h.
A short description of data set [1]: Lipophilicity, log P of the compound. It counts as physicochemical. Conditions: octanol/water.
Another data set relates to SK-OV-3. Briefly: Anticancer activity against human SKOV3 cells after 72 hrs by MTT assay. Conditions: SK-OV-3, 72 h. For orientation: Tetrazolium dyes change colour on reduction, which living cells bring about.
In the next data set the test system is K562. The experiment in a line: Anticancer activity against human K562 cells after 48 hrs by MTT assay. Conditions: K562, 48 h.
In another data set the test system is A-431. Briefly: Anticancer activity against human A431 cells after 72 hrs by MTT assay. Conditions: A-431, 72 h.
Another data set has as its system HepG2. Briefly: Anticancer activity against human HepG2 cells after 72 hrs by MTT assay. Conditions: HepG2, 72 h.

The IC50 is the point on the concentration scale where inhibition reaches its midpoint. In general, logP refers to a log measure of how a compound divides between an organic and an aqueous phase. High values mean higher lipophilicity, low ones lower lipophilicity. As for `N#Cc1c(F)c(Cl)c2c(C(=O)c3ccc(Cl)cc3)c3n(c(=N)c2c1F)CCN3`, the IC50 with HL-60 was found to be 0.3 µg/mL (≈ 0.716 µM); with SK-OV-3, 34.9 µg/mL (≈ 83.3 µM); in the data set on K562, 1.4 µg/mL (≈ 3.34 µM); in the data set on A-431, 5 µg/mL (≈ 11.9 µM); in the data set on HepG2, 12.4 µg/mL (≈ 29.6 µM). In data set [1], this compound returned a logP of 4.
On to `N#Cc1c(F)c(F)c2c(C(=O)c3ccccc3)c3n(c(=N)c2c1F)CCN3`, for which the IC50 with HL-60 came out at 0.001 µg/mL (≈ 0.00272 µM); in the data set with SK-OV-3, 0.2 µg/mL (≈ 0.543 µM); with K562, 0.08 µg/mL (≈ 0.217 µM); in the data set on A-431, 0.8 µg/mL (≈ 2.17 µM); in the data set on HepG2 it was 1.2 µg/mL (≈ 3.26 µM). For the same compound, the logP in data set [1] stood at 2.63.
On to `COc1ccc(C(=O)c2c3n(c(=N)c4c(F)c(C#N)c(F)c(F)c24)CCO3)cc1`, for which the IC50 in the data set with HL-60 turned out to be 0.1 µg/mL (≈ 0.25 µM); with SK-OV-3, 0.2 µg/mL (≈ 0.501 µM); with K562, 1.8 µg/mL (≈ 4.51 µM); in the data set on A-431 it was 1.5 µg/mL (≈ 3.76 µM); in the data set on HepG2, 0.5 µg/mL (≈ 1.25 µM). For the same compound, the logP in data set [1] worked out at 2.57.
Take `Cc1ccc(C(=O)c2c3n(c(=N)c4c(F)c(C#N)c(F)c(F)c24)CCCN3)cc1`: the IC50 with HL-60 is 4.7 µg/mL (≈ 11.9 µM); with SK-OV-3, 33.9 µg/mL (≈ 85.5 µM); with K562, 0.7 µg/mL (≈ 1.77 µM); in the data set on A-431, 2.1 µg/mL (≈ 5.3 µM); in the data set with HepG2, 2.4 µg/mL (≈ 6.05 µM). Further, the logP in data set [1] stood at 3.21.
Take `COc1ccc(C(=O)c2c3n(c(=N)c4c(F)c(C#N)c(F)c(Cl)c24)CCN3)cc1`: the IC50 in the data set with HL-60 stood at 0.2 µg/mL (≈ 0.482 µM); with K562, 0.3 µg/mL (≈ 0.723 µM); in the data set with A-431, 1.9 µg/mL (≈ 4.58 µM); with HepG2 it was 1.2 µg/mL (≈ 2.89 µM). The compound further came in with a logP in data set [1] of 3.26.
On to `N#Cc1c(Cl)c(Cl)c2c(C(=O)c3ccccc3)c3n(c(=N)c2c1Cl)CCCN3`, for which the IC50 is 10.7 µg/mL (≈ 24.8 µM) in the data set on HL-60; 51.2 µg/mL (≈ 119 µM) in the data set with SK-OV-3; 1.2 µg/mL (≈ 2.78 µM) in the data set with K562; 10.1 µg/mL (≈ 23.4 µM) in the data set with A-431; 9.3 µg/mL (≈ 21.5 µM) with HepG2. The compound further had a logP in data set [1] of 4.11.
`CC(=O)c1c2n(c(=N)c3c(F)c(C#N)c(F)c(F)c13)CCN2`: the IC50 was 0.02 µg/mL (≈ 0.0653 µM) in the data set on HL-60; 0.02 µg/mL (≈ 0.0653 µM) in the data set on SK-OV-3; 0.1 µg/mL (≈ 0.327 µM) with K562; 4.4 µg/mL (≈ 14.4 µM) in the data set with A-431; 3.1 µg/mL (≈ 10.1 µM) in the data set on HepG2. This compound also gave a logP in data set [1] of 1.03.
On to `Cc1ccc(C(=O)c2c3n(c(=N)c4c(F)c(C#N)c(F)c(Cl)c24)CCCN3)cc1`, for which the IC50 turned out to be 14.6 µg/mL (≈ 35.4 µM) in the data set on HL-60; 76.4 µg/mL (≈ 185 µM) in the data set on SK-OV-3; 2.3 µg/mL (≈ 5.57 µM) in the data set on K562; 27.5 µg/mL (≈ 66.6 µM) in the data set with A-431; 24.6 µg/mL (≈ 59.6 µM) in the data set with HepG2. The same compound had a logP in data set [1] of 3.85.
Take `COc1ccc(C(=O)c2c3n(c(=N)c4c(F)c(C#N)c(F)c(F)c24)CCN3)cc1`: the IC50 in the data set on HL-60 is 0.5 µg/mL (≈ 1.26 µM); with K562, 0.4 µg/mL (≈ 1 µM); in the data set with A-431, 7.5 µg/mL (≈ 18.8 µM); in the data set on HepG2, 0.9 µg/mL (≈ 2.26 µM). The compound also showed a logP in data set [1] of 2.62.
In the case of `N#Cc1c(F)c(Cl)c2c(C(=O)c3ccccc3)c3n(c(=N)c2c1F)CCO3`, the IC50 with HL-60 came to 1.5 µg/mL (≈ 3.89 µM); in the data set with SK-OV-3 it was 29.2 µg/mL (≈ 75.7 µM); with K562 it was 1.7 µg/mL (≈ 4.41 µM); with A-431 it was 2.3 µg/mL (≈ 5.96 µM); in the data set with HepG2, 3.6 µg/mL (≈ 9.33 µM). This compound also showed a logP in data set [1] of 3.21.
For the compound `COc1ccc(C(=O)c2c3n(c(=N)c4c(F)c(C#N)c(F)c(Cl)c24)CCCN3)cc1`, the IC50 stood at 0.5 µg/mL (≈ 1.17 µM) with HL-60; 26.8 µg/mL (≈ 62.5 µM) with SK-OV-3; 0.07 µg/mL (≈ 0.163 µM) in the data set on K562; 2 µg/mL (≈ 4.66 µM) with A-431; 0.8 µg/mL (≈ 1.87 µM) in the data set with HepG2. The compound further gave a logP in data set [1] of 3.34.
`N#Cc1c(F)c(F)c2c(C(=O)c3ccc(Cl)cc3)c3n(c(=N)c2c1F)CCCN3`: the IC50 with HL-60 is 4.7 µg/mL (≈ 11.3 µM); with SK-OV-3 it was 15.1 µg/mL (≈ 36.2 µM); with K562, 0.5 µg/mL (≈ 1.2 µM); in the data set with A-431, 4.3 µg/mL (≈ 10.3 µM); in the data set on HepG2 it was 8.4 µg/mL (≈ 20.2 µM). In data set [1], the logP stood at 3.44.
Consider `N#Cc1c(Cl)c(Cl)c2c(C(=O)c3ccccc3)c3n(c(=N)c2c1Cl)CCN3`, for which the IC50 with HL-60 is 0.8 µg/mL (≈ 1.92 µM); in the data set with SK-OV-3, 19.7 µg/mL (≈ 47.2 µM); with K562, 0.7 µg/mL (≈ 1.68 µM); in the data set with A-431, 3.4 µg/mL (≈ 8.14 µM); with HepG2, 4.4 µg/mL (≈ 10.5 µM). The compound also displayed a logP in data set [1] of 4.03.
In the case of `N#Cc1c(Cl)c(Cl)c2c(C(=O)c3ccccc3)c3n(c(=N)c2c1Cl)CCO3`, the IC50 stood at 6 µg/mL (≈ 14.3 µM) in the data set with HL-60; 17.4 µg/mL (≈ 41.6 µM) in the data set on SK-OV-3; 2.2 µg/mL (≈ 5.25 µM) in the data set with K562; 14.5 µg/mL (≈ 34.6 µM) in the data set with A-431; 0.3 µg/mL (≈ 0.717 µM) with HepG2. The same compound yielded a logP in data set [1] of 3.97.
With `CCOC(=O)c1c2n(c(=N)c3c(F)c(C#N)c(F)c(Cl)c13)CCN2`, the IC50 in the data set with HL-60 was 0.003 µg/mL (≈ 0.00851 µM); in the data set on SK-OV-3, 0.05 µg/mL (≈ 0.142 µM); with K562, 0.0008 µg/mL (≈ 0.00227 µM); in the data set with A-431, 2.2 µg/mL (≈ 6.24 µM); in the data set on HepG2, 1.5 µg/mL (≈ 4.25 µM). The logP in data set [1] was determined as 2.68.
For `N#Cc1c(F)c(F)c2c(C(=O)c3ccccc3)c3n(c(=N)c2c1F)CCO3`, the concentration for half-maximal inhibition (IC50) in the data set on HL-60 worked out at 0.008 µg/mL (≈ 0.0217 µM); in the data set on SK-OV-3, 0.2 µg/mL (≈ 0.542 µM); in the data set on K562, 0.0002 µg/mL (≈ 0.000542 µM); in the data set on A-431 it was 0.3 µg/mL (≈ 0.812 µM); with HepG2, 0.1 µg/mL (≈ 0.271 µM). Also, the logP in data set [1] was 2.57.
For the compound `COc1ccc(C(=O)c2c3n(c(=N)c4c(F)c(C#N)c(F)c(Cl)c24)CCO3)cc1`, the IC50 in the data set on HL-60 is 1 µg/mL (≈ 2.41 µM); in the data set on SK-OV-3, 23.8 µg/mL (≈ 57.2 µM); in the data set with K562, 0.5 µg/mL (≈ 1.2 µM); in the data set with A-431, 2.1 µg/mL (≈ 5.05 µM); with HepG2, 2 µg/mL (≈ 4.81 µM). The compound also came in with a logP in data set [1] of 3.21.
As to `N#Cc1c(F)c(Cl)c2c(C(=O)c3ccccc3)c3n(c(=N)c2c1F)CCN3`, the IC50 with HL-60 was 0.1 µg/mL (≈ 0.26 µM); in the data set with SK-OV-3, 5.8 µg/mL (≈ 15.1 µM); in the data set with K562, 0.4 µg/mL (≈ 1.04 µM); with A-431 it was 4.8 µg/mL (≈ 12.5 µM); in the data set with HepG2, 0.3 µg/mL (≈ 0.78 µM). For the same compound, the logP in data set [1] was found to be 3.27.
On to `CCOC(=O)c1c2n(c(=N)c3c(Cl)c(C#N)c(Cl)c(Cl)c13)CCN2`, for which the IC50 was determined as 1.7 µg/mL (≈ 4.41 µM) with HL-60; 50.1 µg/mL (≈ 130 µM) in the data set with SK-OV-3; 1.6 µg/mL (≈ 4.15 µM) in the data set on K562; 40.6 µg/mL (≈ 105 µM) in the data set on A-431; 38.2 µg/mL (≈ 99.1 µM) in the data set with HepG2. Further, the logP in data set [1] was 3.44.
`N#Cc1c(Cl)c(Cl)c2c(C(=O)c3ccc(Cl)cc3)c3n(c(=N)c2c1Cl)CCN3`: the IC50 was 2.6 µg/mL (≈ 5.75 µM) in the data set on HL-60; 31.4 µg/mL (≈ 69.4 µM) with SK-OV-3; 2.4 µg/mL (≈ 5.31 µM) in the data set with K562; 20.3 µg/mL (≈ 44.9 µM) in the data set on A-431; 37.6 µg/mL (≈ 83.2 µM) in the data set on HepG2. In data set [1], the logP amounted to 4.76.
Consider `N#Cc1c(Cl)c(Cl)c2c(C(=O)c3ccc(Cl)cc3)c3n(c(=N)c2c1Cl)CCCN3`, for which the IC50 in the data set on HL-60 came to 4.4 µg/mL (≈ 9.44 µM); in the data set on SK-OV-3 it was 52.2 µg/mL (≈ 112 µM); with K562, 1.2 µg/mL (≈ 2.57 µM); with A-431, 8 µg/mL (≈ 17.2 µM); in the data set on HepG2, 30 µg/mL (≈ 64.4 µM). Further, the logP in data set [1] was determined as 4.84.
As for `CC(=O)c1c2n(c(=N)c3c(Cl)c(C#N)c(Cl)c(Cl)c13)CCN2`, the IC50 in the data set with HL-60 was 4.7 µg/mL (≈ 13.2 µM); with SK-OV-3, 78.4 µg/mL (≈ 220 µM); with K562, 3.6 µg/mL (≈ 10.1 µM); in the data set on A-431 it was 308 µg/mL (≈ 866 µM); in the data set on HepG2, 503 µg/mL (≈ 1410 µM). In data set [1], the logP worked out at 2.43.
Consider `N#Cc1c(F)c(F)c2c(C(=O)c3ccccc3)c3n(c(=N)c2c1F)CCCN3`, for which the IC50 in the data set on HL-60 was found to be 0.3 µg/mL (≈ 0.785 µM); in the data set with SK-OV-3, 16.4 µg/mL (≈ 42.9 µM); with K562, 0.02 µg/mL (≈ 0.0523 µM); in the data set on A-431, 2.4 µg/mL (≈ 6.28 µM); in the data set on HepG2 it was 1.1 µg/mL (≈ 2.88 µM). In addition, the logP in data set [1] worked out at 2.71.
Turning to `COc1ccc(C(=O)c2c3n(c(=N)c4c(Cl)c(C#N)c(Cl)c(Cl)c24)CCN3)cc1`, the IC50 is 0.3 µg/mL (≈ 0.67 µM) in the data set with HL-60, 0.7 µg/mL (≈ 1.56 µM) with K562, 2.1 µg/mL (≈ 4.69 µM) in the data set on A-431 and 11.3 µg/mL (≈ 25.2 µM) in the data set with HepG2. This compound registered a logP in data set [1] of 4.02.
